Results published in patent publication US5580549A, “External preparation for skin” (priority 1992, dated 1996).
pIC50: −log10 of the molar value.

What was measured:
human skin [1] = test: Examination for bleaching effect (lotion applied to sunlight-exposed skin, depression effect to the chromatosis); type: in vivo; details: for bleaching effect: lotion with 1.0 wt % sample, each morning and evening, 8 weeks, 10 subjects per group; for improvement of bleaching effect by added ingredient (in words): added to preparation including 2-hydroxy alkoxybenzoic acid
Method: (2) E[…] BLEACHING EFFECT
Lotions were prepared by the following formula, using each sample. Namely, the alcohol phase and aqueous phase according to the following formula were prepared respectively, and both phases were mixed and dissolved according to an ordinal method. […]
______________________________________
Polyoxyethylene (25 moles) hydrogenated castor
Sodium hexametaphosphorate
Ion exchanged water balance
10 subjects for each group were exposed to sunlight in summer for 4 hours (2 hours×2 days). The lotion was applied to the facial skin of medialis brachii once each morning and evening […] after the day exposed to the sunlight for 8 weeks. After the application period, depression effect to the chromatosis which was caused by the ultraviolet irradiation was examined and evaluated, the degree of which was based on The following standard.
.circleincircle.: The number of the subjects who judged the result was "extremely effective" or "effective" were equal to or more than eight (Equal to or more than 80%).
.largecircle.: The number of the subjects who judged the result was "extremely effective" or "effective" were five to seven (from 50% less than 70%)
Δ: The number of the subjects who judged the result was "extremely effective" or "effective" were three to four (from 30% less than 40%)
×: The number of the subjects who judged the result was "extremely effective" or "effective" were less than two (less than 20%)
The inhibition effect to the tyrosinase activity which is essential for producing the melanine and bleaching effect for human skin by the 2-hydroxy alkoxybenzoic acid were examined by using samples described in TABLE 1.
The investigation for improvement of bleaching effect by adding other ingredients were carried out as described below.
Namely, the 2-hydroxy-3-methoxybenzoic acid as the 2-hydroxy alkoxy benzoic acid and sodium hyaluronate as the acid mucopolysaccharide were used for the examination of improvement of bleaching effect.
Lotions for the examination were prepared by adding 0.5 weight % of 2-hydroxy-3-methoxybenzoic acid into the alcohol phase and sodium hyaluronate into the aqueous phase of which the concentration as to be shown in TABLE 3.

Stability of the samples = details: TABLE 1 and TABLE 2; symbols not defined
mushroom tyrosinase = test: Examination for inhibition of tyrosinase activity (L-DOPA substrate, absorbance at 475 nm); type: biochemical; details: for pIC50: L-DOPA substrate, pH 8.8 phosphate buffer, 1.5 minutes, room temperature, read-out: ID50 (inhibition of tyrosinase activity)
Method: (1) EXAMINATION FOR INHIBITION OF TYROSINASE ACTIVITY
10 mg L-DOPA (guaranteed reagent) is dissolved at the time of examination in 20 ml of phosphate buffer described in 3) below and prepared 0.05% L-DOPA solution.
3) 0.1-M phosphate buffer
The buffer was prepared at pH 8.8.
Preparation of sample solution
The sample described in TABLE 1 below are diluted by ethanol to the concentration with 3 standards.
The measurement of the tyrosinase activity was carried out by a modified method of Pomerantz, using L-DOPA (guaranteed reagent) as the substrate and measuring the absorbance at 475 nm at which the absorption of dihydroxyphenylalanine chrome (reaction product) exists.
Namely, 1.0 ml of the L-DOPA solution and 1.8 ml of the phosphate buffer were added in 0.1 ml of the sample solutions. 0.1 ml of tyrosinase solution was added and mixed for reaction for 1.5 minutes at room temperature. The absorbance at 475 nm was measured by using a spectrophotometer (type 220 A Spectrophotometer, HITACHI corporation) and the measured value was expressed by T.
Also, 1.0 ml of distilled water instead of the L-DOPA solution. 1.8 ml of the phosphate buffers and 0.1 ml of the sample solutions were mixed, operated in the same way above, measured the absorbance and obtained the value T' as a reagent blank of the sample.
0.1 ml of ethanol instead of the sample solutions was added to the mixture of 1.0 mo of the L-DOPA and 1.8 ml of phosphate buffers, operated in the same way above and obtained the value C as a control.
1.8 ml of phosphate buffers and 0.1 ml of ethanol were added to 1.0 ml of distilled water instead of L-DOPA solution, operated in the same way above and obtained the value C' as a reagent blank of the control.
Inhibition of tyrosinase activity in each sample concentration were obtained by the following formula. The result was described as semilog graph of which a logarithmic scale indicates concentration of the sample and another scale indicates inhibition ratio of the activity.
Incidentally, the values T, T', C, and C' were measured three times and averages were used for the calculation.
Inhibition of tyrosinase activity (%)=100×[1-(T-T')/(C-C')]

human skin [2] = details: stated as known; cited from earlier work

stability (Stability of the samples) | pIC50 (mushroom tyrosinase) | Molecule | bleaching effect (human skin [1]) | further results
.smallcircle. | 1.68 | COc1cccc(C(=O)O)c1O [Example 1, 2-hydroxy-3-methoxybenzoic acid] | .circleincircle. (The number of the subjects who judged the result was "extremely effective" or "effective" were equal to or more than eight (Equal to or more than 80%)) | –
.smallcircle. | 2.35 | COc1ccc(O)c(C(=O)O)c1 [Example 3, 2-hydroxy-5-methoxybenzoic acid] | .circleincircle. (The number of the subjects who judged the result was "extremely effective" or "effective" were equal to or more than eight (Equal to or more than 80%)) | –
.smallcircle. | 2.70 | CCOc1ccc(C(=O)O)c(O)c1 [Example 4, 2-hydroxy-4-ethoxybenzoic acid] | .circleincircle. (The number of the subjects who judged the result was "extremely effective" or "effective" were equal to or more than eight (Equal to or more than 80%)) | –
– | – | Cc1cccc(C(=O)O)c1O [Example 5, 2-hydroxy-3-methylbenzoic acid] | .circleincircle. (The number of the subjects who judged the result was "extremely effective" or "effective" were equal to or more than eight (Equal to or more than 80%)) | –
.smallcircle. | – | Cc1ccc(C(=O)O)c(O)c1 [Example 6, 2-hydroxy-4-methylbenzoic acid] | .circleincircle. (The number of the subjects who judged the result was "extremely effective" or "effective" were equal to or more than eight (Equal to or more than 80%)) | –
.smallcircle. | – | CCc1ccc(C(=O)O)c(O)c1 [Example 8, 2-hydroxy-4-ethylbenzoic acid] | .circleincircle. (The number of the subjects who judged the result was "extremely effective" or "effective" were equal to or more than eight (Equal to or more than 80%)) | –
– | 3.52 | O=C1O[C@H]([C@@H](O)CO)C(O)=C1O [c, ascorbic acid, reference compound] | .smallcircle. | bleaching effect (in words) (human skin [1]; in vivo): rather low level; inhibition of tyrosinase activity (in words) (mushroom tyrosinase): high inhibition effect
– | – | O=C(O)CN(CCN(CC(=O)O)CC(=O)O)CC(=O)O [disodium ethylenediamine tetraacetate] | – | improvement of bleaching effect by added ingredient (in words) (human skin [1]): excellent improvement effect of bleaching
– | – | CCOC(=O)c1ccc(O)cc1 [ethyl p-hydroxybenzoate] | – | improvement of bleaching effect by added ingredient (in words) (human skin [1]): excellent improvement effect of bleaching
– | – | COC(=O)c1ccc(O)cc1 [methyl p-hydroxybenzoate] | – | improvement of bleaching effect by added ingredient (in words) (human skin [1]): excellent improvement effect of bleaching
– | – | COc1ccc(C(=O)[O-])c(O)c1.[K+] [potassium 2-hydroxy-4-methoxybenzoate] | – | subjects who judged the effect was "extremely effective" or "effective" (human skin [1]; bleaching effect examination, lotion): 80%
– | – | CC(=O)Oc1c(C)c(C)c2c(c1C)CCC(C)(CCC[C@H](C)CCC[C@H](C)CCCC(C)C)O2 (some centres unmarked) [tocopherol acetate] | – | improvement of bleaching effect by added ingredient (in words) (human skin [1]): excellent improvement effect of bleaching
– | – | sodium hyaluronate | – | improvement of bleaching effect by added ingredient (in words) (human skin [1]): extremely improved

Molecule | stability (Stability of the samples) | pIC50 (mushroom tyrosinase) | bleaching effect (human skin [1]) | further results
COc1ccc(C(=O)O)c(O)c1 [Example 2, 2-hydroxy-4-methoxybenzoic acid] | – | 3.00 | .circleincircle. (The number of the subjects who judged the result was "extremely effective" or "effective" were equal to or more than eight (Equal to or more than 80%)) | –
Cc1ccc(O)c(C(=O)O)c1 [Example 7, 2-hydroxy-5-methylbenzoic acid] | .smallcircle. | – | .circleincircle. (The number of the subjects who judged the result was "extremely effective" or "effective" were equal to or more than eight (Equal to or more than 80%)) | –
Oc1ccc(O)cc1 [a, hydroquinone, reference compound] | – | 2.38 | Δ (The number of the subjects who judged the result was "extremely effective" or "effective" were three to four (from 30% less than 40%)) | side effect (known) (human skin [2]): have side effect
O=C(O)c1cc(O)ccc1O [b, gentisic acid, reference compound] | Δ | 1.87 | Δ (The number of the subjects who judged the result was "extremely effective" or "effective" were three to four (from 30% less than 40%)) | side effect (known) (human skin [2]): have side effect
